Assay results from paper PMC10733349, “Synthesis and in-vitro anti-proliferative with antimicrobial activity of new coumarin containing heterocycles hybrids” (Scientific Reports, 2023).
Values after ≈ are worked out from the molar mass of the structure shown. Values joined by “and” are separate entries in the source; they are usually repeats but may differ in a detail not shown here. Equal entries are not always repeated.

Legend:
WISH cell line = experiment: MTT safety assay on WISH normal cells; type: cell-based, Human; conditions: 2 days
Source text: (§1) Cell lines; WISH cell line (Human amnion-derived normal epithelial cells, CCL-25), MDA-MB-231 cell line (Human, mammary gland/breast adenocarcinoma, HTB-26), CaCo-2 cell line (Human Colorectal adenocarcinoma, epithelial cells, HTB-37), A549 cell line (Human Lung adenocarcinoma, epithelial cells, CCL-185) cell lines and HepG-2 (liver hepatocellular carcinoma, HEPG2, HB-8065) were obtained from ATCC, originally with license and serial numbers as mentioned.
(§2) The safety assays of coumarin hybrids on noncancerous cell lines and their anticancer effects on cancerous cells were gauged utilizing MTT-assay (Promega) in accordance with the instruction protocol. Starting from 60 to 200 µM, serial dilutions of coumarin hybrids were prepared in sterile DMSO to be treated cell lines at final concentrations 30 to 100 µM. The treated cells were incubated for 2 days, and the cellular cytotoxicity was detected by quantifying the solubilized formazan in DMSO at 570 nm. The inhibition concentration of 50 (IC50) was calculated from the cytotoxicity% curve using GraphPad prism 9.

CaCo-2 cell line = experiment: MTT anti-proliferative assay, CaCo-2; type: cell-based, Human; conditions: for IC50: CaCo-2, MTT, 2 days; for Selective index: SI = IC50 normal cells (WISH)/IC50 CaCo-2
Source text: as §1, §2
(§3) Cancer cell selectivity index of Coumarin hybrids samples were measured as explained by, with a minor modification; (SI = IC50nc/IC50cc), where IC50nc refers to the value of IC50 of the coumarin hybrids compounds on normal cells, while IC50cc refers to the IC50 of the coumarin hybrids compounds on cancer cell line.

A549 cell line = experiment: MTT anti-proliferative assay, A549; type: cell-based, Human; conditions: for IC50: Homo sapiens, A549, 48 h, A549, MTT, 2 days; for Selective index: SI = IC50 normal cells (WISH)/IC50 A549
Source text: as §1, §2, §3

MDA-MB-231 cell line = experiment: MTT anti-proliferative assay, MDA-MB-231; type: cell-based, Human; conditions: for IC50: MDA-MB-231, MTT, 2 days; for Selective index: SI = IC50 normal cells (WISH)/IC50 MDA-MB-231
Source text: as §1, §2, §3

HepG-2 = experiment: MTT anti-proliferative assay, HepG-2; type: cell-based, human; conditions: for IC50: HepG-2, MTT, 2 days; for Selective index: SI = IC50 normal cells (WISH)/IC50 HepG-2
Source text: as §1, §2, §3

Staphylococcus aureus = experiment: Antimicrobial microplate assay (MIC), S. aureus; type: cell-based; conditions: Staph. aureus, two values per compound
Source text: (§4) Microbial strains: Escherichia coli, pseudomonas aeruginosa, Staphylococcus aureus, Streptococcus mutans and Candida albicans were collected from the microbial culture collection of Biopharmaceutical Products Research Department, Genetic Engineering and Biotechnology Research Institute, SRTA-City, New Borg El-Arab city, Alexandria, Egypt.
(§5) The antimicrobial activity of coumarin hybrids samples were checked against different multiple drug resistant microorganisms (Escherichia coli, pseudomonas aeruginosa, Staphylococcus aureus and Streptococcus mutans and Candida albicans) using various concentrations (30 to 100 µM). An aliquot of 100.0 µl of each sample concentration was added to an equal volume of each microbial growth dilution (about 10^6 CFU/ml) and inoculated into 96 well plate. Furthermore, 100.0 µl of LB media was added to 100.0 µl of microbial growth to set as the negative control group. After that, the inoculated plates were incubated overnight at 37 °C then, the microbial turbidity was measured using automated ELIZA microplate reader (BINDER BIOTECK E LX 800) adjusted at 620 nm. The microbial inhibition percentage after treatments were quantified using the following equation:1 Inhibition percentage=A-A1/A0×100. where, A: the treatment group absorbance, A1: the blank absorbance, and A0: the control group absorbance.

Candida albicans = experiment: Antimicrobial microplate assay (MIC), C. albicans; type: cell-based; conditions: two values per compound
Source text: as §4, §5

Escherichia coli = experiment: Antimicrobial microplate assay (MIC), E. coli; type: cell-based; conditions: two values per compound
Source text: as §4, §5

Streptococcus mutans = experiment: Antimicrobial microplate assay (MIC), S. mutans; type: cell-based; conditions: two values per compound
Source text: as §4, §5

pseudomonas aeruginosa = experiment: Antimicrobial microplate assay (MIC), P. aeruginosa; type: cell-based
Source text: as §4, §5

IC50 (CaCo-2 cell line; Homo sapiens, Caco-2, 48 h) [µM]	IC50 (A549 cell line) [µM]	IC50 (MDA-MB-231 cell line; Homo sapiens, MDA-MB-231, 48 h) [µM]	MIC (Staphylococcus aureus) [µM]	MIC (Staphylococcus aureus; Staphylococcus aureus) [µM]	MIC (Candida albicans; Candida albicans) [µM]	MIC (Candida albicans)	MIC (Escherichia coli; Escherichia coli) [µM]	MIC (Escherichia coli) [µM]	MIC (Streptococcus mutans; Streptococcus mutans) [µM]	MIC (Streptococcus mutans)	SMILES	IC50 (WISH cell line; Homo sapiens, 48 h) [µM]	Selective index (CaCo-2 cell line)	Selective index (A549 cell line)	Selective index (MDA-MB-231 cell line)	IC50 (HepG-2; Homo sapiens, HepG2, 48 h) [µM]	Selective index (HepG-2)	further results
57.1	51.7	211	31 (≈ 11.3 µg/mL)	30 (≈ 11 µg/mL)	62 (≈ 22.7 µg/mL)	61 µM (≈ 22.3 µg/mL)	29 (≈ 10.6 µg/mL)	28 (≈ 10.2 µg/mL)	248 (≈ 90.7 µg/mL)	246 µM (≈ 90 µg/mL)	O=C(NNc1ccnc2cc(Cl)ccc12)c1cc2ccccc2oc1=O [7a, N'-(7-Chloroquinolin-4-yl)-2-oxo-2H-chromene-3-carbohydrazide]	79.3	1.38 and 1.39	1.5 and 1.533	0.3752	75.4	1.051	melting point: 294 to 296 °C
52.8	54.8	154	22 (≈ 8.66 µg/mL)	20 (≈ 7.88 µg/mL)	28 (≈ 11 µg/mL)	27 µM (≈ 10.6 µg/mL)	45 (≈ 17.7 µg/mL)	43 (≈ 16.9 µg/mL)	100 (≈ 39.4 µg/mL)	103 µM (≈ 40.6 µg/mL)	O=C(NCCNc1ccnc2cc(Cl)ccc12)c1cc2ccccc2oc1=O [7b, N-(2-((7-Chloroquinolin-4-yl)amino)ethyl)-2-oxo-2H-chromene-3-carboxamide]	92.9	1.76 and 1.764	1.6 and 1.695	0.6038	88.7	1.049	IC50 (CaCo-2 cell line): 52.8 µM; melting point: 274 to 276 °C
57.3	97.4	51	29 (≈ 11.8 µg/mL)	28 (≈ 11.4 µg/mL)	31 (≈ 12.6 µg/mL)	30 µM (≈ 12.2 µg/mL)	125 (≈ 51 µg/mL)	126 (≈ 51.4 µg/mL)	152 (≈ 62 µg/mL)	150 µM (≈ 61.2 µg/mL)	O=C(NCCCNc1ccnc2cc(Cl)ccc12)c1cc2ccccc2oc1=O [7c, N-(3-((7-Chloroquinolin-4-yl)amino)propyl)-2-oxo-2H-chromene-3-carboxamide]	112	1.969	1.155	2.20 and 2.21	133	0.8456	IC50 (MDA-MB-231 cell line): 51 µM
51.6	–	103	30 (≈ 13.3 µg/mL)	29 (≈ 12.8 µg/mL)	62 (≈ 27.4 µg/mL)	60 µM (≈ 26.5 µg/mL)	46 (≈ 20.3 µg/mL)	45 (≈ 19.9 µg/mL)	130 (≈ 57.4 µg/mL)	132 µM (≈ 58.3 µg/mL)	O=C(Nc1ccc(Nc2ccnc3cc(Cl)ccc23)cc1)c1cc2ccccc2oc1=O [7d, N-(4-((7-Chloroquinolin-4-yl)amino)phenyl)-2-oxo-2H-chromene-3-carboxamide]	138	2.666	0.67 and 0.6789	1.351	82.8	1.67 and 1.671	IC50 (CaCo-2 cell line): 52 µM; IC50 (HepG-2): 82.8 µM
86.3	152	70.5	24 (≈ 12.8 µg/mL)	25 (≈ 13.3 µg/mL)	25 (≈ 13.3 µg/mL)	26 µM (≈ 13.8 µg/mL)	19 (≈ 10.1 µg/mL)	16 (≈ 8.51 µg/mL)	160 (≈ 85.1 µg/mL)	162 µM (≈ 86.2 µg/mL)	O=C(Nc1ccc(Cc2ccc(Nc3ccnc4cc(Cl)ccc34)cc2)cc1)c1cc2ccccc2oc1=O [7e, N-(4-(4-((7-Chloroquinolin-4-yl)amino)benzyl)phenyl)-2-oxo-2H-chromene-3-carboxamide]	93.1	1.079	0.6129	1.32	351	0.2658	–
–	–	–	3.2 (≈ 1.31 µg/mL)	3.2 to 66 (≈ 1.31 to 27 µg/mL)	–	–	–	–	3.2 to 66 (≈ 1.31 to 27 µg/mL)	5 µM and 5.5 µM	O=C(NCCNc1c2ccccc2nc2ccccc12)c1cc2ccccc2oc1=O [10b, N-(2-(Acridin-9-ylamino)ethyl)-2-oxo-2H-chromene-3-carboxamide]	–	–	–	–	–	–	MIC (pseudomonas aeruginosa): 14.8 µM (≈ 6.06 µg/mL)
–	130	109	–	–	–	–	–	–	–	–	O=C(NCCCNc1c2ccccc2nc2ccccc12)c1cc2ccccc2oc1=O [10c, N-(3-(Acridin-9-ylamino)propyl)-2-oxo-2H-chromene-3-carboxamide]	56.7	0.77	–	0.8462	107	0.5533	IC50 (CaCo-2 cell line): 56.7 µM; IC50 (CaCo-2 cell line; listed as 10): 145 µM; Selective index (CaCo-2 cell line; listed as 10): 0.7785; MIC (pseudomonas aeruginosa): 15.4 µM (≈ 6.52 µg/mL); melting point: 261 to 263 °C
–	–	–	–	–	–	0.0011 µM and 0.0014 µM	–	–	–	–	Cn1c2nc3ccccc3c-2c(NCCNC(=O)c2cc3ccccc3oc2=O)c2ccccc21 [13b, N-(2-((5-Methyl-5H-indolo[2,3, b]quinolin-11-yl)amino)ethyl)-2-oxo-2H-chromene-3-carboxamide]	–	–	–	–	–	–	–
84.8	65	89.9	–	–	–	–	–	–	–	–	Cn1c2nc3ccccc3c-2c(NCCCNC(=O)c2cc3ccccc3oc2=O)c2ccccc21 [13c, N-(3-((5-methyl-5H-indolo[2,3-b]quinolin-11-yl)amino)propyl)-2-oxo-2H-chromene-3-carboxamide]	95.9	–	–	–	71	–	–
99.5	260	111	63 (≈ 9.21 µg/mL)	62 (≈ 9.06 µg/mL)	30 (≈ 4.38 µg/mL)	29 µM (≈ 4.24 µg/mL)	59 (≈ 8.62 µg/mL)	58 (≈ 8.48 µg/mL)	240 (≈ 35.1 µg/mL)	241 µM (≈ 35.2 µg/mL)	O=c1ccc2ccccc2o1 [Ct, coumarin]	176	1.701	0.6915	1.599	232	0.7613	–
2.91	3.78	0.655	–	–	–	–	–	–	–	–	COc1cccc2c1C(=O)c1c(O)c3c(c(O)c1C2=O)C[C@@](O)(C(=O)CO)C[C@@H]3O[C@H]1C[C@H](N)[C@H](O)[C@H](C)O1 [DOX, doxorubicin, reference compound]	1.76	0.6148	0.7653	1.954	1.18	1.653	–
1110	351	132	8.5 (≈ 1.62 µg/mL)	8 (≈ 1.52 µg/mL)	10 (≈ 1.9 µg/mL)	9.8 µM (≈ 1.86 µg/mL)	20 (≈ 3.8 µg/mL)	21.76 (≈ 4.14 µg/mL)	17 (≈ 3.23 µg/mL)	16.65 µM (≈ 3.17 µg/mL)	O=C(O)c1cc2ccccc2oc1=O [compound 1, coumarin-3-carboxylic acid, reference compound]	334	0.3027	0.9497	2.521	924	0.3617	IC50 (WISH cell line): 334 µM
